Data from patent publication US7728012B2, “Carboxamide compounds and their use as calpain inhibitors” (Abbott GmbH & Co. KG, priority 2006, dated 2010).

What was measured:
Assay type in all cases: biochemical
[1] = biological target: T1, calpain-I isolated from human erythrocytes (Homo sapiens, UniProt P07384); test: Calpain I kinetic fluorescence enzyme inhibition assay; conditions: apparent Ki from IC50 by Cheng-Prussoff; average of 2 to 4 dose-effect plots
T1 construct: calpain-I—isolated from human erythrocytes; purchased Calbiochem 208713; host or cells: human erythrocytes (tissue isolate)
T1 sequence (P07384 1-714): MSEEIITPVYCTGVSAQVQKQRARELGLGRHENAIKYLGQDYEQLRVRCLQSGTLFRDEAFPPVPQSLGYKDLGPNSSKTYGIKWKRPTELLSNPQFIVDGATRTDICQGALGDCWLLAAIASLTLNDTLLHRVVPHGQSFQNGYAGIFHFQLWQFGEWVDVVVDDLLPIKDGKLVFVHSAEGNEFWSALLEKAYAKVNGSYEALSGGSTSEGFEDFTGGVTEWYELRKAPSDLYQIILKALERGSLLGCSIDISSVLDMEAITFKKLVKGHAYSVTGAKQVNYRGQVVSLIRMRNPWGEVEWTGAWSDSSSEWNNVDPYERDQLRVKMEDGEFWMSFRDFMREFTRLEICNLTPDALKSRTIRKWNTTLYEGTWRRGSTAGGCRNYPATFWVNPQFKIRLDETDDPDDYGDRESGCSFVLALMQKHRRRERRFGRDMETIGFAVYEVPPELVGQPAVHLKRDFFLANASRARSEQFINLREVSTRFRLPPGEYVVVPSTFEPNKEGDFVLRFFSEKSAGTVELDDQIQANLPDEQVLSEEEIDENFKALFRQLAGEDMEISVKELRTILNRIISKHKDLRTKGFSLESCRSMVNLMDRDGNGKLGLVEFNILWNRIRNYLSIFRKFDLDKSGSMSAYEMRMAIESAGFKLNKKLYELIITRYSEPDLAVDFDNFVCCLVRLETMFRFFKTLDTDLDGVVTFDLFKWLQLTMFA
T1 sequence (P04632 1-268 partner): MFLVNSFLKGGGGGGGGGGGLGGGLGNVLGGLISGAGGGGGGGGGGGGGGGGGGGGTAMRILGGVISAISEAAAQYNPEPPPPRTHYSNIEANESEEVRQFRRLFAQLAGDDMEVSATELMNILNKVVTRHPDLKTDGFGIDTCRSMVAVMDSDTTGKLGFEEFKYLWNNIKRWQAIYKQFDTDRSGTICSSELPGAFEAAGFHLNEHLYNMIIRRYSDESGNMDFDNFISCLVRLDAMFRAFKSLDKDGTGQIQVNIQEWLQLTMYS
Experimental: (§1) The following solutions and buffers were employed: • HBS (for 40 ml): 800 μl M HEPES; 2.16 ml 100 mM KCl; 4.8 ml 1M NaCl; 3.59 ml 5% glucose; 60 μl μM MgSO4; 400 μl 100 mM Na pyruvate, 28.19 ml water; pH 7.2-7.5. • lysis buffer (for 20 ml): 400 μl M Tris pH 8.2; 2.74 ml 1M NaCl; 520 μl 0.5M EDTA; 2 ml 10% triton X-100; 0.8 ml (=1:25) CompletePlus (1 tablet/2 ml H2O); 200 μl 100 mM Pefabloc; 13.34 ml water, pH 8.2. • TBST (10×) (for 1 l): 100 mM Tris (12.1 g); 1.5M NaCl (87 g); 1% Tween 20 (10 g), adjusted to pH 8. I Enzyme Inhibition In Vitro: • Testing for blockade of the corresponding enzymic activities was carried out by means of kinetic fluorescence assays (excitation 390 nm, emission 460 nm). • Apparent Ki values were calculated from the experimentally determined IC50 values by the Cheng-Prussoff relation assuming a reversible competitive enzyme inhibition. The Km values of the substrates used under the assay conditions indicated above were: 90 μM (Z-Phe-Arg-AMC, cathepsin B), 10 μM (Z-Gly-Pro-Arg-AMC, cathepsin K), 2 μM (Z-Phe-Arg-AMC, cathepsin L), and 30 μM (Z-Val-Val-Arg-AMC, cathepsin S). • The indicated Ki values are averages of the inhibition constants calculated on the basis of 2 to 4 independent dose-effect plots.
(§2) The following assays were used: • 1. Calpain I: • 20 nM calpain-I—isolated from human erythrocytes (Calbiochem #208713), 100 μM Suc-Leu-Tyr-AMC (Bachem #1-1355) as substrate in buffer with 62 mM imidazole, 0.3 mM CaCl2, 0.10% CHAPS, 0.05% BSA, 1 mM DTT at pH 7.3 and room temperature. • 2. Cathepsin B: • 0.25 nM cathepsin B—isolated from human liver (Calbiochem #219362), 100 μM Z-Phe-Arg-AMC (Bachem #I-1160) as substrate 50 mM MES, 2 mM EDTA, 0.05% Brij 35, 2.5 mM L-cysteine, pH 6.0, room temperature. • 3. Cathepsin K: • 3 nM cathepsin K—activated from recombinant human procathepsin K from E. coli (Calbiochem #342001), 10 μM Z-Gly-Pro-Arg-AMC (Biomol #P-142) as substrate in 50 mM MES, 2 mM EDTA, 0.05% Brij 35, 2.5 mM L-cysteine, pH 6.0, room temperature. • 4. Cathepsin L: • 1 nM cathepsin L—isolated from human liver (Calbiochem #219402), 2 μM Z-Phe-Arg-AMC (Bachem #1-1160) as substrate in 50 mM MES, 2 mM EDTA, 0.05% Brij 35, 2.5 mM L-cysteine, pH 6.0, room temperature. • 5. Cathepsin S: • 0.5 nM recombinant human cathepsin S from E. coli (Calbiochem #219343), 20 μM Z-Val-Val-Arg-AMC (Bachem #1-1540) as substrate in 50 mM MES, 2 mM EDTA, 0.05% Brij 35, 2.5 mM L-cysteine, pH 6.0, room temperature. • The results of the in vitro determination are indicated in Table 1. The following abbreviations are used in Table 1: • The “Calpain activity” column, ++ stands for a calpain Ki (Ki(calpain)) of ≦40 nM and + means: 40 nM<Ki(Calpain)≦100 nM. • The “Sel. cat. B” column indicates the Ki(cathepsin B)/Ki(calpain) ratio. In this connection, ++ means a Ki(cathepsin B)/Ki(calpain) ratio of ≧30 and + means 10≦Ki(cathepsin B)/Ki(calpain)<30. • The “Sel. cat. K” column indicates the Ki(cathepsin K)/Ki(calpain) ratio. In this connection, ++ means a Ki(cathepsin K)/Ki(calpain) ratio of ≧30 and + means 10≦Ki(cathepsin K)/Ki(calpain)<30. • The “Sel. cat. L” column indicates the Ki(cathepsin L)/Ki(calpain) ratio. In this connection, ++ means a Ki(cathepsin L)/Ki(calpain) ratio of ≧50 and + means 30≦Ki(cathepsin L)/Ki(calpain)<50. • The “Sel. cat. S” column indicates the Ki(cathepsin S)/Ki(calpain) ratio. In this connection, ++ means a Ki(cathepsin S)/Ki(calpain) ratio of ≧100 and + means 50≦Ki(cathepsin S)/Ki(calpain)<100.

[2] = biological target: T2, cathepsin L isolated from human liver (Homo sapiens, UniProt P07711); test: Cathepsin L kinetic fluorescence enzyme inhibition assay; conditions: selectivity ratio versus calpain I
T2 construct: cathepsin L—isolated from human liver; purchased Calbiochem 219402; host or cells: human liver (tissue isolate)
Experimental: as §1, §2

[3] = biological target: T3, recombinant human cathepsin S (Homo sapiens, UniProt P25774); test: Cathepsin S kinetic fluorescence enzyme inhibition assay; conditions: selectivity ratio versus calpain I
T3 construct: purchased Calbiochem 219343; host or cells: E. coli
Experimental: as §1, §2

T2 sequence (P07711 114-333): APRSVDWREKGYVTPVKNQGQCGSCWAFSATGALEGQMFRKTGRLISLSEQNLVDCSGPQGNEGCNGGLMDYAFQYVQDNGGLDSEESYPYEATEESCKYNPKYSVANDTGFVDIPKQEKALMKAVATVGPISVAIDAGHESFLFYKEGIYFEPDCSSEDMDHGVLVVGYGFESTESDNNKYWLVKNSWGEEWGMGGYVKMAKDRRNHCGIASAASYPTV
T3 sequence (P25774 115-331): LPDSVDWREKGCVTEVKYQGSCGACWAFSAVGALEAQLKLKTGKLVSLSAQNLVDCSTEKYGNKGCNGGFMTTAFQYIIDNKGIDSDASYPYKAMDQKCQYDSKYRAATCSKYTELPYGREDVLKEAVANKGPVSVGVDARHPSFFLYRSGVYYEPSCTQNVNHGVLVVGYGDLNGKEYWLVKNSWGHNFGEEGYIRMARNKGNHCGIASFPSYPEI

Row | Compound | Ki [1] [nM] | Sel cat. L (Ki(cathepsin L)/Ki(calpain) ratio) [2] | Sel cat. S (Ki(cathepsin S)/Ki(calpain) ratio) [3]
1 | CCCCC(NC(=O)c1cccnc1-n1cnc(-c2ccc(N3CCOCC3)cc2)c1)C(=O)C(N)=O.Cl (centres unmarked) [Example 15, N-{1-[Amino(oxo)acetyl]pentyl}-2-[4-(4-morpholin-4-ylphenyl)-1H-imidazol-1-yl]nicotinamide hydrochloride] | ≤ 40 | ++ (Ki(cathepsin L)/Ki(calpain) ratio of ≧50) | + (50≦Ki(cathepsin S)/Ki(calpain)<100)
2 | CCCCC(NC(=O)c1cccnc1-n1cnc(-c2ccc(C(F)(F)F)cc2)c1)C(=O)C(N)=O.Cl (centres unmarked) [Example 17, N-{1-[Amino(oxo)acetyl]pentyl}-2-{4-[4-(trifluoromethyl)phenyl]-1H-imidazol-1-yl}nicotinamide hydrochloride] | ≤ 40 | ++ (Ki(cathepsin L)/Ki(calpain) ratio of ≧50) | + (50≦Ki(cathepsin S)/Ki(calpain)<100)
3 | CCCCC(NC(=O)c1cc(Cl)cnc1-n1cnc(-c2ccccc2)c1)C(=O)C(N)=O.Cl (centres unmarked) [Example 24, N-{1-[Amino(oxo)acetyl]pentyl}-5-chloro-2-(4-phenyl-1H-imidazol-1-yl)nicotinamide hydrochloride] | ≤ 40 | + (30≦Ki(cathepsin L)/Ki(calpain)<50) | –
4 | CCCCC(NC(=O)c1cccnc1-n1ccc(-c2ccc(OC)cc2)n1)C(=O)C(N)=O (centres unmarked) [Example 49, N-{1-[Amino(oxo)acetyl]pentyl}-2-[3-(4-methoxyphenyl)-1H-pyrazol-1-yl]nicotinamide] | 40 to 100 | + (30≦Ki(cathepsin L)/Ki(calpain)<50) | ++ (Ki(cathepsin S)/Ki(calpain) ratio of ≧100)
5 | CCCCC(NC(=O)c1cccnc1-n1ccc(-c2cccc(N3CCOCC3)c2)n1)C(=O)C(N)=O (centres unmarked) [Example 59, N-{1-[Amino(oxo)acetyl]pentyl}-2-[3-(3-morpholin-4-ylphenyl)-1H-pyrazol-1-yl]nicotinamide] | ≤ 40 | ++ (Ki(cathepsin L)/Ki(calpain) ratio of ≧50) | + (50≦Ki(cathepsin S)/Ki(calpain)<100)
6 | NC(=O)C(=O)C(Cc1ccccc1)NC(=O)c1cccnc1-n1cc(COc2ccccc2)c(-c2ccc(F)cc2)n1 (centres unmarked) [Example 179, N-[3-Amino-2,3-dioxo-1-(phenylmethyl)propyl]-2-{3-(4-fluorophenyl)-4-[(phenyloxy)methyl]-1H-pyrazol-1-yl}pyridine-3-carboxamide] | – | + (30≦Ki(cathepsin L)/Ki(calpain)<50) | ++ (Ki(cathepsin S)/Ki(calpain) ratio of ≧100)

Further lines, with some results ahead:

Row | Ki [1] [nM] | Compound | Sel cat. L (Ki(cathepsin L)/Ki(calpain) ratio) [2] | Sel cat. S (Ki(cathepsin S)/Ki(calpain) ratio) [3]
7 | ≤ 40 | NC(=O)C(=O)C(Cc1ccccc1)NC(=O)c1cccnc1-n1cnc(-c2ccc(Cl)cc2)c1 (centres unmarked) [Example 9, N-(3-Amino-1-benzyl-2,3-dioxopropyl)-2-[4-(4-chlorophenyl)-1H-imidazol-1-yl]nicotinamide] | + (30≦Ki(cathepsin L)/Ki(calpain)<50) | ++ (Ki(cathepsin S)/Ki(calpain) ratio of ≧100)
8 | 40 to 100 | COc1ccc(-c2cn(-c3ncccc3C(=O)NC(Cc3ccccc3)C(=O)C(N)=O)cn2)cc1 (centres unmarked) [Example 13, N-(3-Amino-1-benzyl-2,3-dioxopropyl)-2-[4-(4-methoxyphenyl)-1H-imidazol-1-yl]nicotinamide] | ++ (Ki(cathepsin L)/Ki(calpain) ratio of ≧50) | + (50≦Ki(cathepsin S)/Ki(calpain)<100)
9 | ≤ 40 | Cl.NC(=O)C(=O)C(Cc1ccccc1)NC(=O)c1cccnc1-n1cnc(-c2ccc(C(F)(F)F)cc2)c1 (centres unmarked) [Example 18, N-(3-Amino-1-benzyl-2,3-dioxopropyl)-2-{4-[4-(trifluoromethyl)phenyl]-1H-imidazol-1-yl}nicotinamide hydrochloride] | + (30≦Ki(cathepsin L)/Ki(calpain)<50) | ++ (Ki(cathepsin S)/Ki(calpain) ratio of ≧100)
10 | 40 to 100 | NC(=O)C(=O)C(Cc1ccccc1)NC(=O)c1cccnc1-n1ccc(-c2ccc(Cl)cc2)n1 (centres unmarked) [Example 39, N-(3-Amino-1-benzyl-2,3-dioxopropyl)-2-[3-(4-chlorophenyl)-1H-pyrazol-1-yl]nicotinamide] | ++ (Ki(cathepsin L)/Ki(calpain) ratio of ≧50) | ++ (Ki(cathepsin S)/Ki(calpain) ratio of ≧100)
11 | ≤ 40 | Cc1cn(-c2ncccc2C(=O)NC(Cc2ccccc2)C(=O)C(N)=O)nc1-c1ccccc1 (centres unmarked) [Example 86, N-[3-Amino-2,3-dioxo-1-(phenylmethyl)propyl]-2-(4-methyl-3-phenyl-1H-pyrazol-1-yl)pyridine-3-carboxamide] | ++ (Ki(cathepsin L)/Ki(calpain) ratio of ≧50) | –
12 | 40 to 100 | COCc1cn(-c2ncccc2C(=O)NC(Cc2ccccc2)C(=O)C(N)=O)nc1-c1ccc(F)cc1 (centres unmarked) [Example 170, N-[3-Amino-2,3-dioxo-1-(phenylmethyl)propyl]-2-{3-(4-fluorophenyl)-4-[(methyloxy)methyl]-1H-pyrazol-1-yl}pyridine-3-carboxamide] | + (30≦Ki(cathepsin L)/Ki(calpain)<50) | –
